The target of experiment [1] is T1, Siglec-2 (CD22) (Homo sapiens, UniProt P20273).
T1 sequence (P20273 20-847): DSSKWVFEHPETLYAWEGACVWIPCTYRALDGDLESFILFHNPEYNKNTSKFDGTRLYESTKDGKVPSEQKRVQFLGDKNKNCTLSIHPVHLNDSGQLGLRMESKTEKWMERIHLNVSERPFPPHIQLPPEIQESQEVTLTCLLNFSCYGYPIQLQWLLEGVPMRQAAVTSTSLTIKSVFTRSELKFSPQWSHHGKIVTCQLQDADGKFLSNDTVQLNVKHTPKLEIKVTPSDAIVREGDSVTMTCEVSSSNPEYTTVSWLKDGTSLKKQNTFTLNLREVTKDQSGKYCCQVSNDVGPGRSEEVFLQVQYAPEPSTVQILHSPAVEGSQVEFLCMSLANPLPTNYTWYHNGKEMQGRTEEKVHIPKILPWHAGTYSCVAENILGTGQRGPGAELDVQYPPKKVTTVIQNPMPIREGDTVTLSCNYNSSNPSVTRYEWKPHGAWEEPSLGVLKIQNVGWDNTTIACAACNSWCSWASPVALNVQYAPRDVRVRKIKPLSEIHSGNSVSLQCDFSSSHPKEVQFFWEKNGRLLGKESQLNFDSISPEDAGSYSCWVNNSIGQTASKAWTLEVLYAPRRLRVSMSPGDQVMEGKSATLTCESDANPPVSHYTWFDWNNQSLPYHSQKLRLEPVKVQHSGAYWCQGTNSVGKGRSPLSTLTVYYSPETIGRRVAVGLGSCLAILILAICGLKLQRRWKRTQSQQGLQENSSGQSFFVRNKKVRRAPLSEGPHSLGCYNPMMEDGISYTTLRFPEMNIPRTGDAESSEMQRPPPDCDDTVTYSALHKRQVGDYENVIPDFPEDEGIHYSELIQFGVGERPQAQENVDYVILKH
Nature of the experiment: known affinity assay (Bock et al., Methods Mol. Biol. 2006), 'Literature assay'. The format is binding. The note with it: relative Inhibitory Potency; BPC Neu5Ac = 1. The procedure:
The affinity of a number of dimers was measured using a known assay (Bock et al., Methods Mol. Biol. 2006, 347, 359-375). […] Exact values were undeterminable, however, owing to fluctuating values. In order to be able to determine the affinity of the new derivatives reliably, a new assay was drawn up. For this assay, compound 155 was prepared.

In experiment [2] the target is T1, Siglec-2 (CD22). Kind of experiment: new affinity assay: displacement of biotinylated compound 155 from sialidase-treated Daudi cells, FACS with streptavidin-PE. It is filed as binding. Details: endogenous in cells; host or cells: Daudi (human B-cell lymphoma line). The note with it: for rIP: Table II, rIP values set relative to compound 38, Daudi cells, displacement of compound 155; for rIP (New assay): relative Inhibitory Potency from IC50, human B-cell lymphoma line Daudi, compound 38 = 1. The procedure, abridged:
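Sialidase-treated Daudi cells preincubated on ice 15 min with inhibitor (1 mM to 1×10^−7 mM), then 20 min with biotinylated probe (4 μM as added); bound probe detected by streptavidin-PE flow cytometry. IC50 converted to relative inhibitory potency (rIP) against a reference substance.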

Data on 19 compounds can be found in patent US9260467B2, “Sialic acid dimers” (priority 2011, dated 2016).

Bounds are passed on as bounds.

As to `CC(=O)N[C@H]1[C@H]([C@H](O)[C@H](O)CNC(=O)c2ccc(-c3ccccc3)cc2)O[C@@](OCCCSCCNC(=O)c2ccc(C(=O)NCCSCCCO[C@]3(C(=O)[O-])C[C@H](O)[C@@H](NC(C)=O)[C@H]([C@H](O)[C@H](O)CNC(=O)c4ccc(-c5ccccc5)cc4)O3)cc2)(C(=O)[O-])C[C@@H]1O.[Na+].[Na+]` [Compound 21], the “rIP (Literature assay)” value at Siglec-2 (CD22) [1] was over 2000. Moreover, at Siglec-2 (CD22) [2], the rIP is recorded as 2979 and the “rIP (New assay)” value was determined as 2979.

In the case of `CC(=O)N[C@H]1[C@H]([C@H](O)[C@H](O)CO)O[C@@](OCCCSCCNC(=O)c2ccc(C(=O)NCCSCCCO[C@]3(C(=O)[O-])C[C@H](O)[C@@H](NC(C)=O)[C@H]([C@H](O)[C@H](O)CO)O3)cc2)(C(=O)[O-])C[C@@H]1O.[Na+].[Na+]` [Compound 38], the “rIP (Literature assay)” value on Siglec-2 (CD22) [1] is ~1-3. Moreover, at Siglec-2 (CD22) [2], the rIP is 1 and the “rIP (New assay)” value turned out to be 1.

Consider `CO[C@]1(C(=O)[O-])C[C@H](O)[C@@H](NC(C)=O)[C@H]([C@H](O)[C@H](O)CNC(=O)c2ccc(-c3ccccc3)cc2)O1.[Na+]` [BPC Neu 5Ac, reference compound], for which, on Siglec-2 (CD22) [1], the “rIP (Literature assay)” value is 1.

Compound `CC(=O)N[C@H]1[C@H]([C@H](O)[C@H](O)CNC(=O)c2ccc(-c3ccccc3)cc2)O[C@@](OCCCSCCNC(=O)c2ccccc2-c2ccccc2C(=O)NCCSCCCO[C@]2(C(=O)[O-])C[C@H](O)[C@@H](NC(C)=O)[C@H]([C@H](O)[C@H](O)CNC(=O)c3ccc(-c4ccccc4)cc3)O2)(C(=O)[O-])C[C@@H]1O.[Na+].[Na+]` [Compound 35] returned a rIP at Siglec-2 (CD22) [2] of 717.

`CC(=O)N[C@H]1[C@H]([C@H](O)[C@H](O)CNC(=O)c2ccc(-c3ccccc3)cc2)O[C@@](OCCCSCCNC(=O)c2ccc(C(=O)NCCSCCCO[C@]3(C(=O)[O-])C[C@H](O)[C@@H](NC(C)=O)[C@H]([C@H](O)[C@H](O)CNC(=O)c4ccc(C5CCCCC5)cc4)O3)cc2)(C(=O)[O-])C[C@@H]1O.[Na+].[Na+]` [Compound 103] returned a rIP at Siglec-2 (CD22) [2] of 185.

With `CC(=O)N[C@H]1[C@H]([C@H](O)[C@H](O)CNC(=O)c2ccc(-c3ccccc3)cc2)O[C@@](OCCCSCCNC(=O)C2CCC(C(=O)NCCSCCCO[C@]3(C(=O)[O-])C[C@H](O)[C@@H](NC(C)=O)[C@H]([C@H](O)[C@H](O)CNC(=O)c4ccc(-c5ccccc5)cc4)O3)CC2)(C(=O)[O-])C[C@@H]1O.[Na+].[Na+]` (some centres unmarked) [Compound 31], the rIP on Siglec-2 (CD22) [2] is on record as 643.

As for `CC(=O)N[C@H]1[C@H]([C@H](O)[C@H](O)CNC(=O)c2ccc(-c3ccccc3)cc2)O[C@@](OCCCSCCNC(=O)c2ccc(C(=O)NCCSCCCO[C@]3(C(=O)[O-])C[C@H](O)[C@@H](NC(C)=O)[C@H]([C@H](O)[C@H](O)CNC(=O)c4ccc(-c5ccccc5)cc4)O3)s2)(C(=O)[O-])C[C@@H]1O.[Na+].[Na+]` [Compound 29], the rIP on Siglec-2 (CD22) [2] amounted to 2061.

Consider `CC(=O)N[C@H]1[C@H]([C@H](O)[C@H](O)CNC(=O)c2ccc(-c3ccccc3)cc2)O[C@@](OCCCSCC(NC(=O)c2ccc(C(=O)NC(CSCCCO[C@]3(C(=O)[O-])C[C@H](O)[C@@H](NC(C)=O)[C@H]([C@H](O)[C@H](O)CNC(=O)c4ccc(-c5ccccc5)cc4)O3)C(=O)[O-])cc2)C(=O)[O-])(C(=O)[O-])C[C@@H]1O.[Na+].[Na+].[Na+].[Na+]` (some centres unmarked) [Compound 149], for which the rIP at Siglec-2 (CD22) [2] turned out to be 378.

On Siglec-2 (CD22) [2], `CC(=O)Nc1ccc(C(=O)NC[C@@H](O)[C@@H](O)[C@@H]2O[C@@](OCCCSCCNC(=O)c3ccc(C(=O)NCCSCCCO[C@]4(C(=O)[O-])C[C@H](O)[C@@H](NC(C)=O)[C@H]([C@H](O)[C@H](O)CNC(=O)c5ccc(NC(C)=O)cc5)O4)cc3)(C(=O)[O-])C[C@H](O)[C@H]2NC(C)=O)cc1.[Na+].[Na+]` [Compound 73] returned a rIP of 13.

Turning to `CC(=O)N[C@H]1[C@H]([C@H](O)[C@H](O)CNC(=O)c2ccc3c(c2)C(=O)c2ccccc2-3)O[C@@](OCCCSCCNC(=O)c2ccc(C(=O)NCCSCCCO[C@]3(C(=O)[O-])C[C@H](O)[C@@H](NC(C)=O)[C@H]([C@H](O)[C@H](O)CNC(=O)c4ccc5c(c4)C(=O)c4ccccc4-5)O3)cc2)(C(=O)[O-])C[C@@H]1O.[Na+].[Na+]` [Compound 78], the rIP on Siglec-2 (CD22) [2] was 27.

For the compound `CC(=O)N[C@H]1[C@H]([C@H](O)[C@H](O)CNC(=O)c2ccc(-c3ccco3)cc2)O[C@@](OCCCSCCNC(=O)c2ccc(C(=O)NCCSCCCO[C@]3(C(=O)[O-])C[C@H](O)[C@@H](NC(C)=O)[C@H]([C@H](O)[C@H](O)CNC(=O)c4ccc(-c5ccco5)cc4)O3)cc2)(C(=O)[O-])C[C@@H]1O.[Na+].[Na+]` [Compound 82], the rIP on Siglec-2 (CD22) [2] is recorded as 752.

As to `CC(=O)N[C@H]1[C@H]([C@H](O)[C@H](O)CNC(=O)c2ccc(-c3ccccc3)cc2)O[C@@](OCC(=O)NCCCC(=O)Nc2ccc(NC(=O)CCCNC(=O)CO[C@]3(C(=O)[O-])C[C@H](O)[C@@H](NC(C)=O)[C@H]([C@H](O)[C@H](O)CNC(=O)c4ccc(-c5ccccc5)cc4)O3)cc2)(C(=O)[O-])C[C@@H]1O.[Na+].[Na+]` [Compound 90], the rIP on Siglec-2 (CD22) [2] turned out to be 1445.

Consider `CC(=O)N[C@H]1[C@H]([C@H](O)[C@H](O)CNC(=O)c2ccc(-c3ccccc3)cc2)O[C@@](OCCCCCCNC(=O)c2ccc(C(=O)NCCSCCCO[C@]3(C(=O)O)C[C@H](O)[C@@H](NC(C)=O)[C@H]([C@H](O)[C@H](O)CNC(=O)c4ccc(-c5ccccc5)cc4)O3)cc2)(C(=O)O)C[C@@H]1O` [Compound 92], for which the rIP on Siglec-2 (CD22) [2] was 3788.

With `CC(=O)N[C@H]1[C@H]([C@H](O)[C@H](O)CNC(=O)c2ccc(-c3c4ccc(=O)cc-4oc4cc(O)ccc34)c(C(=O)[O-])c2)O[C@@](OCCCSCCNC(=O)c2ccc(-c3ccc(C(=O)NCCSCCCO[C@]4(C(=O)[O-])C[C@H](O)[C@@H](NC(C)=O)[C@H]([C@H](O)[C@H](O)CNC(=O)c5ccc(-c6c7ccc(=O)cc-7oc7cc(O)ccc67)c(C(=O)[O-])c5)O4)cc3)cc2)(C(=O)[O-])C[C@@H]1O.[Na+].[Na+].[Na+].[Na+]` [Compound 131], on Siglec-2 (CD22) [2], the rIP amounted to 4.

As for `CC(=O)N[C@H]1[C@H]([C@H](O)[C@H](O)CNC(=O)c2ccc(C3CCCCC3)cc2)O[C@@](OCCCSCCNC(=O)CCCCC(=O)NCCSCCCO[C@]2(C(=O)[O-])C[C@H](O)[C@@H](NC(C)=O)[C@H]([C@H](O)[C@H](O)CNC(=O)c3ccc(C4CCCCC4)cc3)O2)(C(=O)[O-])C[C@@H]1O.[Na+].[Na+]` [Compound 58], the rIP on Siglec-2 (CD22) [2] is on record as 24.

As to `CC(=O)N[C@H]1[C@H]([C@H](O)[C@H](O)CNC(=O)c2ccc(-c3ccccc3)cc2)O[C@@](OCCCSCCNC(=O)C#CC(=O)NCCSCCCO[C@]2(C(=O)[O-])C[C@H](O)[C@@H](NC(C)=O)[C@H]([C@H](O)[C@H](O)CNC(=O)c3ccc(-c4ccccc4)cc3)O2)(C(=O)[O-])C[C@@H]1O.[Na+].[Na+]` [Compound 25], the rIP on Siglec-2 (CD22) [2] turned out to be 4944.

Compound `CC(=O)N[C@H]1[C@H]([C@H](O)[C@H](O)CNC(=O)c2ccc(C(F)(F)F)cc2)O[C@@](OCCCSCCNC(=O)c2ccc(C(=O)NCCSCCCO[C@]3(C(=O)[O-])C[C@H](O)[C@@H](NC(C)=O)[C@H]([C@H](O)[C@H](O)CNC(=O)c4ccc(C(F)(F)F)cc4)O3)cc2)(C(=O)[O-])C[C@@H]1O.[Na+].[Na+]` [Compound 71] returned a rIP on Siglec-2 (CD22) [2] of 32.

The compound `CC(=O)N[C@H]1[C@H]([C@H](O)[C@H](O)CNC(=O)c2ccc(-c3cccs3)cc2)O[C@@](OCCCSCCNC(=O)c2ccc(C(=O)NCCSCCCO[C@]3(C(=O)[O-])C[C@H](O)[C@@H](NC(C)=O)[C@H]([C@H](O)[C@H](O)CNC(=O)c4ccc(-c5cccs5)cc4)O3)cc2)(C(=O)[O-])C[C@@H]1O.[Na+].[Na+]` [Compound 80] registered a rIP at Siglec-2 (CD22) [2] of 14342.

At Siglec-2 (CD22) [2], `CC(=O)N[C@H]1[C@H]([C@H](O)[C@H](O)CNC(=O)c2ccc(-c3ccccc3Cl)cc2)O[C@@](OCCCSCCNC(=O)c2ccc(C(=O)NCCSCCCO[C@]3(C(=O)[O-])C[C@H](O)[C@@H](NC(C)=O)[C@H]([C@H](O)[C@H](O)CNC(=O)c4ccc(-c5ccccc5Cl)cc4)O3)cc2)(C(=O)[O-])C[C@@H]1O.[Na+].[Na+]` [Compound 75] had a rIP of 3210.
